The target in the test is T1, rat mGlu2 (Rattus norvegicus, UniProt P31421).
T1 construct: expressed in transfected cells; host or cells: HEK-293 cells stably co-expressing GIRK channels
T1 sequence (P31421 19-872): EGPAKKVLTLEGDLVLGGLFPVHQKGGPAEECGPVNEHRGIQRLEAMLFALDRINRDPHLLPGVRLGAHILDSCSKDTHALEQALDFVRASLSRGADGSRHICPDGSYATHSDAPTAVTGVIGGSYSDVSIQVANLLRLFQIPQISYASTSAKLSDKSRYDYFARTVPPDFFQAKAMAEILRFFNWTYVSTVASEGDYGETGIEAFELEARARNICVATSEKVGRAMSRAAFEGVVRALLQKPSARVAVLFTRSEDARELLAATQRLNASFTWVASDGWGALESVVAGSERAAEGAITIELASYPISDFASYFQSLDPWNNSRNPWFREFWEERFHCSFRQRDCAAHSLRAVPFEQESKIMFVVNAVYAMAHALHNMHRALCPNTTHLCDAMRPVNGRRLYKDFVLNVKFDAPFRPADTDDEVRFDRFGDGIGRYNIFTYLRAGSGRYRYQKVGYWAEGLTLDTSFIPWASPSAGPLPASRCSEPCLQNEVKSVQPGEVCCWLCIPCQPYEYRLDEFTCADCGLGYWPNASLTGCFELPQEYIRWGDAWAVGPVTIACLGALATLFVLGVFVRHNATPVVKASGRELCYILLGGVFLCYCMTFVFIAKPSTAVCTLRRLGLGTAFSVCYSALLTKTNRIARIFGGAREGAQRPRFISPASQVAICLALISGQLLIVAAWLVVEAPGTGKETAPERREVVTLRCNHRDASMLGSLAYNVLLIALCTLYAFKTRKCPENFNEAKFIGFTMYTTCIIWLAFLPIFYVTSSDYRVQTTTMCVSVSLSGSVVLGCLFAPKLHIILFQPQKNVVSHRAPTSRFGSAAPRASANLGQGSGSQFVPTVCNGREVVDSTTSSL
Nature of the test: mGlu GIRK cell-based thallium flux assay, rat mGlu2. As to conditions: HEK-293 cells co-expressing rat mGlu2 and GIRK, EC80 glutamate. The protocol: Human embryonic kidney (HEK-293) cell lines stably co-expressing human or rat mGlu2 and G protein-coupled inwardly rectifying potassium (GIRK) channels, or human mGlu3 and GIRK, were used for in vitro evaluation of compound activity in thallium flux assay using a fluorescent thallium indicator dye.
The day before the assay, GIRK cells co-expressing human mGlu3, human or rat mGlu2, as described above, were plated in black-walled, clear-bottomed, amine-coated 384-well plates at a density of 15,000 cells/20 μL/well in the assay medium (glutamine-depleted basal DMEM supplemented with 10% dialyzed FBS, 20 mM HEPES, 1 mM sodium pyruvate). Cells were incubated at 37° C. in the presence of 5% CO2. The next day, assay buffer (Hanks balanced salt solution, 20 mM HEPES, 4.16 mM sodium bicarbonate, pH 7.2) was prepared to dilute compounds and Thallos AM fluorescent dye solution. The 2× Thallos dye solution (final concentration 0.34 μM to the cells) was prepared by mixing the dye stock (2.97 mM in DMSO) to 1:1 with 10% pluronic acid before adding to the assay buffer. Cells were washed with assay buffer using a microplate washer to remove the medium, resulting in 20 μL of buffer remaining in each well. Immediately, 20 μL of 2× Thallos dye solution was added to cells, and incubated for one hour at 25° C. During the cell dye loading incubation period, a 10-point concentration serial dilution of compound was created from a 10 mM DMSO compound stock by performing a 1:3 serial dilution in DMSO using the Bravo liquid handler. The 2× compound plate was generated by transferring 0.24 μL of the diluted compound in each well to a daughter plate using an Echo acoustic liquid handler. This is further diluted in 40 μL assay buffer, resulting in a range from 30 μM to 1.5 nM final concentration in the assay. The agonist plate (5×) was prepared to include EC80 glutamate concentration (a concentration to elicit 80% of a maximally effective glutamate concentration) in thallium buffer (125 mM […], 1 mM magnesium sulfate, 1.8 mM calcium sulfate, 5 mM glucose, 10 mM HEPES, pH 7.2, 12.5 mM thallium sulfate).
After dye-loading, cell plates were washed with assay buffer to remove excess extracellular dye using a microplate washer, resulting in 20 μL of buffer remaining in each well. After a ten-minute equilibration period, cell, compound and agonist plates were loaded into a Hamamatsu μCell kinetic imaging plate reader equipped with liquid handler to monitor fluorescence changes at 480 nm excitation and 540 nm emission settings. Briefly, after collection of baseline fluorescence, 20 μL of compound was added and incubated for two minutes and twenty seconds. This is immediately followed by adding 10 μL of glutamate-thallium buffer to the wells containing compound. The fluorescent signal was monitored an additional 2.5 minutes after the glutamate addition. Multiple reference wells containing no compound received either no glutamate (for a baseline reference), EC80 glutamate, or ECmax glutamate (for normalization to maximum response). Fluorescence was measured throughout the experiment at a frequency of 1 measurement per every 2 seconds before the glutamate addition and a frequency of 1 measurement per every 1 second after the glutamate addition. Each compound concentration series occurred one time in each plate, and replicates from two or three plates were used in each experimental run. Thallium solutions were handled and disposed of according to guidelines from the Vanderbilt University Chemical Safety department.
Data were normalized using a static ratio function (F/F0) by dividing every fluorescent measurement by the initial fluorescent value for the corresponding well. The increase in signal resulting from the glutamate/thallium addition of the second add was measured by determining the slope from 3 seconds to 13 seconds after the addition. […]
A word on the IC50: it is the concentration that inhibits the measured activity by half. Compound `Cc1ccc(-c2cc3c(cc2-c2ccc(F)cc2)C(=O)NC3)cn1` [Compound 6, 6-(4-fluorophenyl)-5-(6-methylpyridin-3-yl)isoindolin-1-one] showed an IC50 of 2460 nM. Next, `Cc1nc2cc(-c3cc4c(cc3-c3ccc(F)cc3)C(=O)NC4)ccc2[nH]1` [Compound 10, 6-(4-fluorophenyl)-5-(2-methyl-1H-benzo[d]imidazol-5-yl)isoindolin-1-one]: greater than 10000 nM. Next, `O=C1NCc2cc(-c3ccc4ncsc4c3)c(-c3ccc(F)cc3)cc21` [Compound 11, 5-(benzo[d]thiazol-6-yl)-6-(4-fluorophenyl)isoindolin-1-one]: greater than 10000 nM; `O=C1NCc2cc(-c3ccc4ocnc4c3)c(-c3ccc(F)cc3)cc21` [Compound 12, 5-(benzo[d]oxazol-5-yl)-6-(4-fluorophenyl)isoindolin-1-one]: 94 nM; `O=C1NCc2cc(-c3ccc4scnc4c3)c(-c3ccc(F)cc3)cc21` [Compound 13, 5-(benzo[d]thiazol-5-yl)-6-(4-fluorophenyl)isoindolin-1-one]: 161 nM. Under `O=C1NCc2cc(-c3ccc4cnccc4c3)c(-c3ccc(F)cc3)cc21` [Compound 14, 6-(4-fluorophenyl)-5-(isoquinolin-6-yl)isoindolin-1-one] stands 2250 nM. Compound `O=C1NCc2cc(-c3ccc4ccncc4c3)c(-c3ccc(F)cc3)cc21` [Compound 15, 6-(4-fluorophenyl)-5-(isoquinolin-7-yl)isoindolin-1-one] yielded an IC50 of 4060 nM. Next, `Cn1cc2cc(-c3cc4c(cc3-c3ccc(F)cc3)C(=O)NC4)cnc2n1` [Compound 16, 6-(4-fluorophenyl)-5-(2-methyl-2H-pyrazolo[3,4-b]pyridin-5-yl)isoindolin-1-one]: greater than 10000 nM; `Cn1cc2cccc(-c3cc4c(cc3-c3ccc(F)cc3)C(=O)NC4)c2n1` [Compound 17, 6-(4-fluorophenyl)-5-(2-methyl-2H-indazol-7-yl)isoindolin-1-one]: 1240 nM. Under `O=C1NCc2cc(-c3ccc4cccnc4c3)c(-c3ccc(F)cc3)cc21` [Compound 18, 6-(4-fluorophenyl)-5-(quinolin-7-yl)isoindolin-1-one] stands 4330 nM. Next, `O=C1NCc2cc(-c3ccc4ncccc4c3)c(-c3ccc(F)cc3)cc21` [Compound 19, 6-(4-fluorophenyl)-5-(quinolin-6-yl)isoindolin-1-one]: 4310 nM; `O=C1NCc2cc(-c3ccc4nccn4c3)c(-c3ccc(F)cc3)cc21` [Compound 20, 6-(4-fluorophenyl)-5-(imidazo[1,2-a]pyridin-6-yl)isoindolin-1-one]: 8310 nM. For `O=C1NCc2cc(-c3cc(F)c4ncccc4c3F)c(-c3ccc(F)cc3)cc21` [Compound 21, 5-(5,8-difluoroquinolin-6-yl)-6-(4-fluorophenyl)isoindolin-1-one], half-maximal inhibition (IC50) was put at 3810 nM. This IC50 lies about 2.2-fold lower than the previous one. Under `O=C1NCc2cc(-c3ccc4scnc4c3)c(-c3ccc(F)cc3F)cc21` [Compound 23, 5-(benzo[d]thiazol-5-yl)-6-(2,4-difluorophenyl)isoindolin-1-one] stands 2150 nM. Under `Cn1cc2ccc(-c3cc4c(cc3-c3ccc(F)cc3F)C(=O)NC4)cc2n1` [Compound 25, 6-(2,4-difluorophenyl)-5-(2-methyl-2H-indazol-6-yl)isoindolin-1-one] stands 2350 nM. In turn, `O=C1NCc2cc(-c3ccc(C4CC4)nc3)c(-c3ccc(F)cc3)cc21` [Compound 26, 5-(6-cyclopropylpyridin-3-yl)-6-(4-fluorophenyl)isoindolin-1-one] came in with a 50% inhibitory concentration (IC50) greater than 10000 nM.

`O=C1NCc2cc(-c3ccc(C(F)(F)F)nc3)c(-c3ccc(F)cc3)cc21` [Compound 27, 6-(4-fluorophenyl)-5-(6-(trifluoromethyl)pyridin-3-yl)isoindolin-1-one]: the IC50 is greater than 10000 nM. As to `Cn1cc2c(-c3cc4c(cc3-c3ccc(F)cc3)C(=O)NC4)cccc2n1` [Compound 28, 6-(4-fluorophenyl)-5-(2-methyl-2H-indazol-4-yl)isoindolin-1-one], the midpoint of inhibition, the IC50, lay at 1930 nM.

The record behind these values is patent publication US20260098030A1, “NEGATIVE ALLOSTERIC MODULATORS OF METABOTROPIC GLUTAMATE RECEPTOR 2” (Vanderbilt University, priority 2022, published 2026).
